Source: patent US20070249620A1, “Urea Derivative” (priority 2004, published 2007)

How the values were obtained:
[1] = biological target: T1, mouse DGAT1 (Mus musculus, UniProt Q9Z2A7); assay: DGAT1 inhibitory effect test (microsome fraction, [14C]-oleoyl-CoA, triglyceride radioactivity by TLC); assay type: biochemical; conditions: 0.5 h; concentration of the test compound 0.1 μg/ml; mouse DGAT1 microsomes, 23° C., 30 minutes; read-out: Inhibitory ratio
T1 construct: made in house; host or cells: insect cells (High Five, Sf9, Sf21, etc.), baculovirus expression system (Invitrogen)
T1 sequence (Q9Z2A7 1-498): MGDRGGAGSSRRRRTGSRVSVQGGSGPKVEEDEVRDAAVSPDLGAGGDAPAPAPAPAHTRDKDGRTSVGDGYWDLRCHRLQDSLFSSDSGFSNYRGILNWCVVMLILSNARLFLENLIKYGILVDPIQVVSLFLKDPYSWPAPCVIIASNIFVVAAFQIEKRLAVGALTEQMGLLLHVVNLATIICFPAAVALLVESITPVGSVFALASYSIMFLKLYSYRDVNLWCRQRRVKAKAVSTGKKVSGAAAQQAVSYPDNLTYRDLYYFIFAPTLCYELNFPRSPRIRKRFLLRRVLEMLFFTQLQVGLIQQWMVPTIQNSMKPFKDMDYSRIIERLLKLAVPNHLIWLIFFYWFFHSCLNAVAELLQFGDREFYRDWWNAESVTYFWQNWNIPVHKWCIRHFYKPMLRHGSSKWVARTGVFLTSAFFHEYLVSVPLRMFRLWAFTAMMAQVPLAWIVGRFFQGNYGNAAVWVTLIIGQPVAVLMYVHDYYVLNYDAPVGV
Procedure: The cDNA which encodes mouse DGAT1 was cloned from a mouse cDNA library by polymerase chain reaction (hereinafter referred to as “PCR”) and introduced into an insect cell virus vector (baculovirus expression system, Invitrogen). After insect cells (High Five, Sf9, Sf21, etc., Invitrogen) were infected with the virus, the cells were collected in buffer A [0.1M sucrose, 50 mM KCl, 40 mM potassium phosphate (pH 7.4), 30 mM EDTA, 1% Protease inhibitor cocktail (SIGMA, P-8340)] and crushed with a Polytron homogenizer. The supernatant obtained by subjecting the homogenate to low speed centrifugal processing (10,000 ×g, 30 minutes) was further subjected to higher-speed centrifugal processing (100,000 ×g, 60 minutes) and the precipitate was resuspended in buffer A as the microsome fraction and used as DGAT1 enzyme. The DGAT1 enzyme was divided into small volumes and stored at −80° C.
(2) DGAT1 Inhibitory Effect Test
The reaction liquid of the following composition [175 mM Tris-HCl (pH 8.0), 8 mM MgCl2, 1 mg/ml BSA, 0.5 mM 1,2-dioleoyl-sn-glycerol (EtOH solution of 10-fold concentration, 10% added), 30 μM[14C]-oleoyl-CoA (about 50 mCi/mmol), 0.5% triton X-100, DGAT1 enzyme (10 μg) obtained in Test Example 1(1), test compound or vehicle (DMSO/MeOH, 7:3 solution, 5% added), total volume 50 μl] was incubated at room temperature (23° C.) for 30 minutes. A reaction terminating solution (70 μl) consisting of isopropanol/1-heptane/water (80:20:2, v/v/v) was added to the reaction solution and stirred, and subsequently stirred with water (30 μl) and 1-heptane (100 μl). The 1-heptane layer (50 μl) was spotted onto a TLC plate and developed with a developing solvent consisting of 1-hexane/diethyl ether/acetic acid (85:15:1, v/v/v). Radioactivity of triglyceride fraction was quantified by BAS2000 bio image analyzer (Fuji Film) and the inhibitory effect of the test compounds was calculated by the following formula through comparison with control. Here, radioactivity at no reaction (0 minutes incubation) was assumed as background. Inhibitory ratio=100−[(Radioactivity when test compound was added)−(Background)]/[(Radioactivity by control)−(Background)]×100

Row | Compound | inhibition at 0.1 µg/mL [1] [%] | melting point
1 | CC(C)c1ccc(NC(=O)Nc2ccc(N3CCN(C(=O)OC(C)(C)C)CC3)cc2)cc1 [Example 22, 4-{4-[3-(4-isopropyl-phenyl)-ureido]-phenyl}-piperazine-1-carboxylic acid tert-butyl ester] | ≥ 50 | 210 °C
2 | CC(C)(C)OC(=O)N1CCN(c2ccc(NC(=O)Nc3ccc(C(C)(C)C)cc3)cc2)CC1 [Example 33, 4-{4-[3-(4-tert-butyl-phenyl)-ureido]-phenyl}-piperazine-1-carboxylic acid tert-butyl ester] | ≥ 50 | 140 to 141 °C
3 | Cc1ccc(Cl)cc1NC(=O)Nc1ccc(N2CCN(C(=O)OC(C)(C)C)CC2)cc1 [Example 35, 4-{4-[3-(5-chloro-2-methyl-phenyl)-ureido]-phenyl}-piperazine-1-carboxylic acid tert-butyl ester] | ≥ 50 | 200 °C
4 | Cc1ccc(F)c(NC(=O)Nc2ccc(N3CCN(C(=O)OC(C)(C)C)CC3)cc2)c1 [Example 37, 4-{4-[3-(2-fluoro-5-methyl-phenyl)-ureido]-phenyl}-piperazine-1-carboxylic acid tert-butyl ester] | ≥ 50 | 211 to 214 °C
5 | CCOc1ccccc1NC(=O)Nc1ccc(N2CCN(C(=O)OC(C)(C)C)CC2)nc1 [Example 39, 4-{5-[3-(2-ethoxy-phenyl)-ureido]-pyridin-2-yl}-piperazine-1-carboxylic acid tert-butyl ester] | ≥ 50 | 162 °C
6 | COc1ccc(Cl)cc1NC(=O)Nc1ccc(N2CCN(C(=O)OC(C)(C)C)CC2)nc1 [Example 40, 4-{5-[3-(5-chloro-2-methoxy-phenyl)-ureido]-pyridin-2-yl}-piperazine-1-carboxylic acid tert-butyl ester] | ≥ 50 | 155 to 157 °C
7 | COc1ccc(C)cc1NC(=O)Nc1ccc(N2CCN(C(=O)Nc3ccc(Br)cc3C)CC2)cc1 [Example 70, 4-{4-[3-(2-methoxy-5-methyl-phenyl)-ureido]-phenyl}-piperazine-1-carboxylic acid (4-bromo-2-methyl-phenyl)-amide] |  | 191 to 193 °C
8 | COc1ccc(C)cc1NC(=O)Nc1ccc(N2CCN(C(=O)Nc3ccc(C)cc3C)CC2)cc1 [Example 71, 4-{4-[3-(2-methoxy-5-methyl-phenyl)-ureido]-phenyl}-piperazine-1-carboxylic acid (2,4-dimethyl-phenyl)-amide] |  | 196 to 199 °C
9 | COc1ccc(C)cc1NC(=O)Nc1ccc(N2CCN(C(=O)Nc3ccc(F)cc3F)CC2)cc1 [Example 72, 4-{4-[3-(2-methoxy-5-methyl-phenyl)-ureido]-phenyl)-piperazine-1-carboxylic acid (2,4-difluoro-phenyl)-amide] |  | 201 to 203 °C
10 | COc1ccc(C)cc1NC(=O)Nc1ccc(N2CCN(C(=O)Nc3ccc(Cl)cc3C)CC2)cc1 [Example 74, 4-{4-[3-(2-methoxy-5-methyl-phenyl)-ureido]-phenyl}-piperazine-1-carboxylic acid (4-chloro-2-methyl-phenyl)-amide] |  | 199 to 201 °C
11 | COc1ccc(C)cc1NC(=O)Nc1ccc(N2CCN(C(=O)Nc3cccc(C)c3C)CC2)cc1 [Example 108, 4-{4-[3-(2-methoxy-5-methyl-phenyl)-ureido]-phenyl}-piperazine-1-carboxylic acid (2,3-dimethyl-phenyl)-amide] |  | 217 to 219 °C
12 | COc1ccc(C)cc1NC(=O)Nc1ccc(N2CCN(C(=O)Nc3cccc(Cl)c3C)CC2)cc1 [Example 136, 4-{4-[3-(2-methoxy-5-methyl-phenyl)-ureido]-phenyl}-piperazine-1-carboxylic acid (3-chloro-2-methyl-phenyl)-amide] |  | 228 to 230 °C
13 | COc1ccc(Cl)cc1NC(=O)Nc1ccc(N2CCN(C(=O)Nc3c(C)cccc3OC)CC2)cc1 [Example 182, 4-{4-[3-(5-chloro-2-methoxy-phenyl)-ureido]-phenyl}-piperazine-1-carboxylic acid (2-methoxy-6-methyl-phenyl)-amide] |  | 165 to 167 °C
14 | COc1ccc(C)cc1NC(=O)Nc1ccc(N2CCN(C(=O)C3CC4CCC3C4)CC2)cc1 (stereo not shown) [Example 189, 1-{4-[4-(bicyclo[2.2.1]heptane-2-carbonyl)-piperazin-1-yl]-phenyl}-3-(2-methoxy-5-methyl-phenyl)-urea] |  | 126 to 128 °C
15 | COc1ccc(C)cc1NC(=O)Nc1ccc(N2CCN(C(=O)C3CCCCC3C)CC2)cc1 (stereo not shown) [Example 190, 1-(2-methoxy-5-methyl-phenyl)-3-{4-[4-(2-methyl-cyclohexanecarbonyl)-piperazin-1-yl]-phenyl}-urea] |  | 208 to 209 °C
16 | COc1ccc(C)cc1NC(=O)Nc1ccc(N2CCN(Cc3ccccc3)CC2)cc1 [Example 191, 1-[4-(4-benzyl-piperazin-1-yl)-phenyl]-3-(2-methoxy-5-methyl-phenyl)-urea] |  | 184 to 186 °C
17 | COc1ccc(C)cc1NC(=O)Nc1ccc(N2CCN(c3ncccn3)CC2)cc1 [Example 193, 1-(2-methoxy-5-methyl-phenyl)-3-[4-(4-pyrimidin-2-yl-piperazin-1-yl)-phenyl]-urea] |  | 220 to 221 °C
18 | COc1ccc(C)cc1NC(=O)Nc1ccc(N2CCN(C(=O)OC(C)(C)C)CC2)cc1C [Example 194, 4-{4-[3-(2-methoxy-5-methyl-phenyl)-ureido]-3-methyl-phenyl}-piperazine-1-carboxylic acid tert-butyl ester] |  | 169 to 171 °C
19 | COc1ccc(C)cc1NC(=O)Nc1ccc(N2CCN(C(=O)OC(C)(C)C)CC2)c(C)c1 [Example 195, 4-{4-[3-(2-methoxy-5-methyl-phenyl)-ureido]-2-methyl-phenyl}-piperazine-1-carboxylic acid tert-butyl ester] |  | 103 to 105 °C
20 | COc1ccc(C)cc1NC(=O)Nc1ccc(N2CCC(C(=O)Nc3c(C)cccc3Cl)CC2)cc1 [Example 196, 1-{4-[3-(2-methoxy-5-methyl-phenyl)-ureido]-phenyl}-piperidine-4-carboxylic acid (2-chloro-6-methyl-phenyl)-amide] |  | > 250 °C (dec.)
21 | COc1ccc(C)cc1NC(=O)Nc1ccc2c(c1)C=CN(C(=O)Nc1c(C)cccc1Cl)C2 [Example 202, 6-[3-(2-methoxy-5-methyl-phenyl)-ureido]-3,4-dihydrido-1H-isoquinoline-2-carboxylic acid (2-chloro-6-methyl-phenyl)-amide] |  | 216 to 218 °C
22 | COc1ccc(C)cc1NC(=O)Nc1ccc(N2CCC(C(=O)c3ccccc3)CC2)nc1 [Example 205, 1-(4-benzoyl-3,4,5,6-tetrahydro-2H-[1,2′]bipyridinyl-5′-yl)-3-(2-methoxy-5-methyl-phenyl)-urea] |  | 193 to 194 °C
23 | COc1ccc(C)cc1NC(=O)Nc1ccc2c(c1)CCN(C(=O)Nc1ncccc1C)C2 [Example 297, 6-[3-(2-methoxy-5-methyl-phenyl)-ureido]-3,4-dihydro-1H-isoquinoline-2-carboxylic acid (3-methyl-pyridin-2-yl)-amide] | ≥ 50 | 
24 | CCOP(=O)(Cc1ccc(NC(=O)N2CCN(c3ccc(NC(=O)Nc4cc(C)ccc4OC)cc3)CC2)c(C)c1)OCC [Example 390, {4-[(4-{4-[3-(2-methoxy-5-methyl-phenyl)-ureido]-phenyl}-piperazine-1-carbonyl)-amino]-3-methyl-benzyl}-phosphonic acid diethyl ester] | ≥ 50 | 
25 | COc1ccc(C)cc1NC(=O)Nc1ccc(N2CCN(C(=O)C(O)c3ncccc3C)CC2)cc1 (stereo not shown) [Example 427, 1-(4-{4-[2-hydroxy-2-(3-methyl-pyridin-2-yl)-acetyl]-piperazin-1-yl}-phenyl)-3-(2-methoxy-5-methyl-phenyl)-urea] |  | 199 to 200 °C
